Data published in patent publication US12150995B2, “IRAK degraders and uses thereof” (Kymera Therapeutics, Inc., priority 2020, dated 2024).

molecular target: T1, IRAK4 (Homo sapiens, UniProt Q9NWZ3); test: IRAK4 MSD Degradation in OCI-LY10; format: cell-based; settings: OCI-LY10 cells, Meso Scale Discovery, incubated 4 to 24 hours
T1 construct: endogenous in cells; host or cells: OCI-LY10
T1 sequence (Q9NWZ3 1-460): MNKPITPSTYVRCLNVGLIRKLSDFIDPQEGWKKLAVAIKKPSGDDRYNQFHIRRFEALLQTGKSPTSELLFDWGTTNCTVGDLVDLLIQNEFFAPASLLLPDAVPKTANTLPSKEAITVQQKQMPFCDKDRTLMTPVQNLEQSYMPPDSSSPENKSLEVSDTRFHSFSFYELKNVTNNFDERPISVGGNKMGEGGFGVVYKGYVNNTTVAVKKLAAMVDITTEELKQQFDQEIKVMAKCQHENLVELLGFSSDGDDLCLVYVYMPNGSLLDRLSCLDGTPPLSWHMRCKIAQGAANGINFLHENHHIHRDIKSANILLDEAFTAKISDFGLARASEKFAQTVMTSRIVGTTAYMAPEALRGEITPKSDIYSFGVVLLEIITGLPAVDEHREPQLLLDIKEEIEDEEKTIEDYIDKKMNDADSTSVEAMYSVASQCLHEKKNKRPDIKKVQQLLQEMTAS
Summary of the method: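 IRAK4 degradation was quantified by Meso Scale electrochemiluminescence (anti-IRAK4 capture and detection antibodies) in lysates of treated OCI-LY10 cells. Compounds were dosed at 8 concentrations (1:3 dilutions, top 1 to 10 μM) for 4 to 24 h; DC50 derived by three-parameter logistic fitting.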

| Structure (SMILES) | DC50 [nM] |
| --- | --- |
| Cn1c(=O)n(C2CCC(=O)NC2=O)c2cccc(C3CCN(C(=O)[C@H]4CC[C@H](n5cc6cc(NC(=O)c7cccc(C(F)(F)F)n7)ccc6n5)CC4)CC3)c21 (stereo partly drawn) [I-94, N-[2-[4-[4-[1-(2,6-dioxo-3-piperidyl)-3-methyl-2-oxo-benzimidazol-4-yl]piperidine-1-carbonyl]cyclohexyl]indazol-5-yl]-6-(trifluoromethyl)pyridine-2-carboxamide] | > 200 |
| O=C1CCN(c2cncc3cc(C4CCN(C[C@H]5CC[C@H](n6cc7cc(NC(=O)c8cccc(C(F)(F)F)n8)ncc7n6)CC5)CC4)ccc23)C(=O)N1 [I-318] | > 200 |
| COc1ccc2c(c1C1CCN(C[C@H]3CC[C@H](n4cc5cc(NC(=O)c6cccc(C(F)(F)F)n6)ncc5n4)CC3)CC1)n(C)c(=O)n2C1CCC(=O)N(C)C1=O (stereo partly drawn) [I-245] | > 200 |
| CC(C)Nc1c(C(=O)N[C@H]2CC[C@H](CN3CCN(c4cccc5c(N6CCC(=O)NC6=O)cncc45)CC3)CC2)cnc2sc(-c3cncs3)cc12 [I-418] | 10 to 50 |
| COc1cc2nn([C@H]3CC[C@H](CN4CCCN(c5ccc6c(N7CCC(=O)NC7=O)cncc6c5)CC4)CC3)cc2cc1NC(=O)c1cccc(C(F)(F)F)n1 [I-356] | < 10 |
| COc1cc2nn([C@H]3CC[C@H](CN4CCC(O[C@H]5C[C@H](c6cccc7c6n(C)c(=O)n7C6CCC(=O)NC6=O)C5)CC4)CC3)cc2cc1NC(=O)c1cccc(C(F)(F)F)n1 (stereo partly drawn) [I-386] | 10 to 50 |
| COc1cc2nn([C@H]3CC[C@H](CN(C)C4CCN(c5cccc6c5n(C)c(=O)n6C5CCC(=O)NC5=O)CC4)CC3)cc2cc1NC(=O)c1cncc(C(F)(F)F)c1 (stereo partly drawn) [I-92] | < 10 |
| CC(C)(O)c1cc2nc([C@H]3CC[C@H](C(=O)N4CCN(CCCNc5cccc6c5C(=O)N(C5CCC(=O)NC5=O)C6=O)CC4)CC3)sc2cc1NC(=O)c1cncc(C#N)c1 (stereo partly drawn) [I-451] | 50 to 100 |
| COc1cc2nn([C@H]3C[C@H](CN4CCC(c5c(Cl)ccc6c5n(C)c(=O)n6C5CCC(=O)NC5=O)CC4)C3)cc2cc1NC(=O)c1cccc(C(F)(F)F)n1 (stereo partly drawn) [I-87, N-[2-[3-[[4-[5-chloro-1-(2,6-dioxo-3-piperidyl)-3-methyl-2-oxo-benzimidazol-4-yl]-1-piperidyl]methyl]cyclobutyl]-6-methoxy-indazol-5-yl]-6-(trifluoromethyl)pyridine-2-carboxamide] | < 10 |
| CC(C)Nc1cc(-c2ccc3cc(C#N)cnn23)ncc1C(=O)N[C@H]1CC[C@H](CN2CCC(c3ccc4c(N5CCC(=O)NC5=O)cncc4c3)CC2)CC1 [I-198] | < 10 |
| COc1cc2nn([C@H]3CC[C@H](CN(C)C4CCN(c5cccc6c5n(C)c(=O)n6C5CCC(=O)NC5=O)CC4)CC3)cc2cc1NC(=O)n1ccc2cccnc21 (stereo partly drawn) [I-113] | < 10 |
| CC(C)Nc1cc(-c2ccc3cc(C#N)cnn23)ncc1C(=O)N[C@H]1CC[C@H](CN2CCC(c3cccc4c(N5CCC(=O)NC5=O)cncc34)CC2)CC1 [I-184] | < 10 |
| Cc1cccc(C(=O)Nc2cc3sc([C@H]4CC[C@H](CN5CCN(CCNc6cccc7c6C(=O)N(C6CCC(=O)NC6=O)C7=O)[C@@H](C)C5)CC4)nc3cc2C(C)(C)O)n1 (stereo partly drawn) [I-467] | 10 to 50 |
| COc1cc2nn([C@H]3C[C@@H](CN(C)C4CCN(c5cccc6c5n(C)c(=O)n6C5CCC(=O)NC5=O)CC4)C3)cc2cc1NC(=O)c1cccc(C(F)(F)F)n1 (stereo partly drawn) [I-32, N-[2-[3-[[[1-[1-(2,6-dioxo-3-piperidyl)-3-methyl-2-oxo-benzimidazol-4-yl]-4-piperidyl]-methyl-amino]methyl]cyclobutyl]-6-methoxy-indazol-5-yl]-6-(trifluoromethyl)pyridine-2-carboxamide] | < 10 |
| COc1cc2nc([C@H]3CC[C@H](CN4CCC(c5cccc6c(N7CCC(=O)NC7=O)cncc56)CC4)CC3)sc2cc1NC(=O)c1cccc(C(F)(F)F)n1 [I-191] | 10 to 50 |
| COc1cc2nn([C@H]3CC[C@H](CN4CCC5(CC4)CCN(c4cccc6c4n(C)c(=O)n6C4CCC(=O)NC4=O)CC5)CC3)cc2cc1NC(=O)c1cncc(C#N)c1 (stereo partly drawn) [I-207] | < 10 |
| COc1ccc2c(c1C1CCN(C[C@H]3C[C@H](n4cc5cc(NC(=O)c6cccc(C(F)(F)F)n6)ncc5n4)C3)CC1)n(C)c(=O)n2C1CCC(=O)NC1=O (stereo partly drawn) [I-421] | 50 to 100 |
| Cc1cc2nn([C@H]3CC[C@H](CN4C[C@@H]5C[C@H]4CN5c4cccc5c4n(C)c(=O)n5C4CCC(=O)NC4=O)CC3)cc2cc1NC(=O)c1cccc(C(F)(F)F)n1 (stereo partly drawn) [I-303] | < 10 |
| CC(C)Nc1cc(-n2ccc3cc(C(F)(F)F)cnc32)ncc1C(=O)N[C@H]1CC[C@H](CN2CCC(c3cccc4c3n(C)c(=O)n4C3CCC(=O)NC3=O)CC2)CC1 (stereo partly drawn) [I-368] | > 200 |
| CCn1c(=O)n(C2CCC(=O)NC2=O)c2cccc(N3CCN(C[C@H]4CC[C@H](n5cc6cc(NC(=O)c7cccc(C(F)(F)F)n7)c(OC)cc6n5)CC4)CC3)c21 (stereo partly drawn) [I-253] | < 10 |
| Cc1cc2nn([C@H]3CC[C@H](CN4CCC(c5cccc6c5n(C)c(=O)n6C5CCC(=O)NC5=O)CC4)CC3)cc2cc1NC(=O)c1cccc(C(F)(F)F)n1 (stereo partly drawn) [I-70] | < 10 |

| Structure (SMILES) | DC50 [nM] |
| --- | --- |
| Cc1cc2nn([C@H]3CC[C@H](CN4C[C@H]5C[C@@H]4CN5c4cccc5c4n(C)c(=O)n5C4CCC(=O)NC4=O)CC3)cc2cc1NC(=O)c1cccc(C(F)(F)F)n1 (stereo partly drawn) [I-389] | 10 to 50 |
| COc1cc(NC(=O)c2cccc(C(F)(F)F)n2)cc2cn([C@H]3CC[C@H](CN4CCC(c5cccc6c(N7CCC(=O)NC7=O)cncc56)CC4)CC3)nc12 [I-221] | < 10 |
| COc1ccc2c(c1N1CCN(C[C@H]3CC[C@H](NC(=O)c4cnc(-c5ccc6cc(C#N)cnn56)cc4NC(C)C)CC3)CC1)n(C)c(=O)n2C1CCC(=O)NC1=O (stereo partly drawn) [I-395] | < 10 |
| O=C1CCN(c2cncc3c(C4CCN(C[C@H]5CC[C@H](c6nc7ccc(NC(=O)c8cccc(C(F)(F)F)n8)cc7s6)CC5)CC4)cccc23)C(=O)N1 [I-201] | > 200 |
| COc1cc2nn([C@H]3CC[C@H](CN(C)C4CCN(c5cccc6c5n(C)c(=O)n6C5CCC(=O)NC5=O)CC4)CC3)cc2cc1NC(=O)c1cncc(F)c1 (stereo partly drawn) [I-81] | < 10 |
| CN(C[C@H]1CC[C@H](n2cc3cc(NC(=O)c4cccc(C(F)(F)F)n4)c(C#N)cc3n2)CC1)C1CCN(c2cccc3c2n(C)c(=O)n3C2CCC(=O)NC2=O)CC1 (stereo partly drawn) [I-239] | < 10 |
| CC(C)Nc1cc(-n2ccc3cc(C#N)cnc32)ncc1-c1cn([C@H]2CC[C@H](CN3CCC(c4cccc5c4n(C)c(=O)n5C4CCC(=O)NC4=O)CC3)CC2)nn1 (stereo partly drawn) [I-159] | < 10 |
| CC(C)Nc1cc(-c2ccc3cc(C#N)cnn23)ncc1C(=O)N[C@H]1CC[C@H](CN2CCN(c3cccc4c(N5CCC(=O)NC5=O)cncc34)CC2)CC1 [I-373] | 10 to 50 |
| COc1cc2nn([C@H]3CC[C@H](CN4CCN(c5ccc6c(N7CCC(=O)NC7=O)cncc6c5OC)CC4)CC3)cc2cc1NC(=O)c1cccc(C(F)(F)F)n1 [I-376] | 10 to 50 |
| Cn1c(=O)n(C2CCC(=O)NC2=O)c2cccc(C3CCN(C[C@H]4CC[C@H](n5cc6cc(NC(=O)c7cccc(C(F)(F)F)n7)c(Cl)cc6n5)CC4)CC3)c21 (stereo partly drawn) [I-24] | 10 to 50 |
| CC(C)Nc1cc(-n2ccc3cc(C#N)cnc32)ncc1C(=O)N[C@H]1CC[C@H](CN2CCN(c3cccc4c(N5CCC(=O)NC5=O)cncc34)CC2)CC1 [I-372] | < 10 |
| COc1ccc2c(c1C1CCN(C[C@H]3CC[C@H](n4cc5cc(NC(=O)c6cccc(C(F)(F)F)n6)ncc5n4)CC3)CC1)n(C)c(=O)n2C1CCC(=O)NC1=O (stereo partly drawn) [I-83] | < 10 |
| CC(C)Nc1cc(-c2ccc3cc(C#N)cnn23)ncc1C(=O)N[C@H]1CC[C@H](CN(C)C2CCN(c3cccc4c3n(C)c(=O)n4C3CCC(=O)NC3=O)CC2)CC1 (stereo partly drawn) [I-179] | < 10 |
| CN(C[C@H]1CC[C@H](n2cc3cc(NC(=O)c4cccc(C(F)(F)F)n4)ncc3n2)CC1)C1CCN(c2cccc3c(N4CCC(=O)NC4=O)cncc23)CC1 [I-79] | > 200 |
| Cc1cccc(C(=O)Nc2cc3sc([C@H]4CC[C@H](CN5CCN(CCNc6cccc7c6C(=O)N(C6CCC(=O)NC6=O)C7=O)[C@H](C)C5)CC4)nc3cc2C(C)(C)O)n1 (stereo partly drawn) [I-470] | 10 to 50 |
| Cc1ccc2c(c1C1CCN(C[C@H]3CC[C@H](n4cc5cc(NC(=O)c6cccc(C#N)n6)ccc5n4)CC3)CC1)n(C)c(=O)n2C1CCC(=O)NC1=O (stereo partly drawn) [I-323] | < 10 |
| COc1cc2nn([C@H]3CC[C@H](CN4CCN(c5cccc6c(N7CCC(=O)NC7=O)cncc56)CC4)CC3)cc2cc1NC(=O)c1cccc(C(F)(F)F)n1 [I-211] | < 10 |
| COc1cc2nn([C@H]3CC[C@H](CN(C)C4CCN(c5c(Cl)ccc6c5n(C)c(=O)n6C5CCC(=O)NC5=O)CC4)CC3)cc2cc1NC(=O)c1cccc(C(F)(F)F)n1 (stereo partly drawn) [I-53] | 10 to 50 |
| CC(C)(O)c1cc2nc([C@H]3CC[C@H](C(=O)N4CCN(CCNc5cccc6c5C(=O)N(C5CCC(=O)NC5=O)C6=O)CC4)CC3)sc2cc1NC(=O)c1cccc(C#N)n1 (stereo partly drawn) [I-434] | 50 to 100 |
| Cn1c(=O)n(C2CCC(=O)NC2=O)c2cccc(C3CCN(C[C@H]4CC[C@H](n5cc6cc(NC(=O)c7cccc(C(F)(F)F)n7)c(C(F)(F)F)cc6n5)CC4)CC3)c21 (stereo partly drawn) [I-76] | 10 to 50 |
| COC(=O)c1cc2nn([C@H]3CC[C@H](CN4CCN(c5cccc6c5n(C)c(=O)n6C5CCC(=O)NC5=O)CC4)CC3)cc2cc1NC(=O)c1cccc(C(F)(F)F)n1 (stereo partly drawn) [I-405] | 10 to 50 |
